Like-named read-outs stand apart in the source and are kept apart here. No end group written: not given here.
Key:
[1] = target: T1, prothrombin (Homo sapiens, UniProt P00734); test: KD of peptide for prothrombin, from kinetics of prothrombinase inhibition; type: biochemical
T1 construct: purchased Haematologic Technologies Inc. (Essex Junction, Vt.)
Excerpt: The mechanism of inhibition of prothrombinase by the hirudin-like peptides HC3 and HC4 was addressed by investigating the effect of the peptides on the kinetic parameters of the enzymatic complex (Km and Vmax). For the sake of simplicity only the results obtained with HC4 are shown (FIG. 2C). In FIG. 2C, the data are plotted as V0 (initial velocity, in arbitrary units) as a function of increasing prothrombin concentration in the presence of increasing concentrations of HC4. The lines drawn represent the best fit through the points with an R^2 of 0.99. The concentrations of HC4 used in the experiments are as follows: control no peptide (filled squares), 0.5 μM peptide (filled circles), 1 μM peptide (filled inverted triangles), 1.5 μM peptide (filled diamonds), and 2 μM peptide (filled triangles). […]
In FIG. 3B, the data are plotted as V0 (initial velocity, in arbitrary units) as a function of increasing prothrombin concentration in the presence of increasing concentrations of peptide DYDYQ. […] The kinetic constants calculated from the data presented in this graph were used to calculate the kcat reported in FIG. 7 assuming a final concentration of 4 nM prothrombinase. […]

[2] = target: thrombin (Homo sapiens, UniProt P00734); test: Activation of plasma factor V by thrombin preincubated with peptide (SDS-PAGE, immunoblotting); type: biochemical; set-up: Factor Xa cleaves prothrombin to form thrombin; purchased Haematologic Technologies Inc. (Essex Junction, Vt.); conditions: thrombin 1 nM preincubated with 100 μM peptide, factor V 250 nM
Method: Gel Electrophoresis and western blotting. Sodium dodecyl sulfate polyacrylamide gel electrophoresis (SDS-PAGE) analyses were performed using 4-12% gradient gels according to the method of Laemmli. In several experiments, proteins were transferred to polyvinylidene difluoride (PVDF) membranes according to the method described by Towbin et al. After transfer to nitrocellulose, factor V heavy and light chain(s) were detected using the appropriate monoclonal and polyclonal antibodies. Immunoreactive fragments were visualized with chemiluminescence.
Factor V (250 nM) was incubated with thrombin (1 nM). And FIG. 4B illustrates thrombin (1 nM) was preincubated with 100 μM peptide DYDYQ and the mixture was added to factor V (250 nM). […] Fragments were identified following staining with monoclonal antibody αHFV#17 that recognizes an epitope between amino acid residues 307-506 of factor V and chemiluminescence as described. Lane 1 in both panels depicts aliquots of the mixture withdrawn from the reaction before the addition of thrombin or thrombin/peptide mixture while lanes 2-7 show aliquots of the reaction mixture withdrawn at 30 sec, 1 min, 3 min, 5 min, 10 min, 15 min following the addition of thrombin alone or of thrombin/peptide mixture. The time of incubation is shown at the bottom of the figure. Position of the molecular weight markers is indicated at left.

Substance: DYDYQ [DYDYQ, Asp-Tyr-Asp-Tyr-Gln]
- Kd ([1]; from Ki of prothrombinase inhibition, read-out: KD for prothrombin): 850 nM
- Kd ([1]; kinetic model FIG. 7, read-out: KD of inhibitor interaction with prothrombin): ~850 nM
- inhibition of activation of factor V by thrombin (cleavage at Arg709) [2]: inhibited
- inhibition of activation of factor V by thrombin (cleavage at Arg709) ([2]; listed as pentapeptide): potent inhibitor

Reference: patent publication US20100267638A1, “EXOSITE-DIRECTED THROMBIN INHIBITORS” (CLEVELAND STATE UNIVERSITY, priority 2003, published 2010)
